The text below walks through data of patent US6187772A, “Pyrroloazepine compounds” (Suntory Limited, priority 1997, dated 2001).

In one assay the test system is α1. Put plainly: Anti-α1 action (contraction of guinea pig thoracic aorta induced by norepinephrine). Format: cell-based, Hartley male guinea pig. As to conditions: tonic contraction induced by 10^-5 M norepinephrine = 100%, helical thoracic aorta preparation, Tyrode solution, 37° C; for Anti α1 action (% of Control), 10^-7 M: test drug 10^-7 M, 0.1 µM; for Anti α1 action (% of Control), 10^-8 M: test drug 10^-8 M, 0.01 µM. The procedure:
(§1) With respect to the compounds of the present invention, their anti-α1 action and anti-serotonin (5-HT) action were investigated by the methods which will be described below.
The thoracic aorta of each Hartley male guinea pig (body weight: 300-500 g) was excised. A preparation cut in a helical form was suspended under 1 g load in a Magnus cylinder filled with the Tyrode solution which had been aerated with a gas mixture of 95% O2 and 5% CO2 and maintained at 37° C. Using an isometric transducer ("TB-612J", manufactured by Nihon Kohden Corporation) and a pressure preamplifier ("AP-620G", manufactured by Nihon Kohden Corporation), variations in tension were measured. The isometric tensions were recorded on a thermal pen-writing recorder ("WT-647G", manufactured by Nihon Kohden Corporation). Taking the tonic contraction induced by 10^-5 M norepinephrine (NE) as 100%, the percent contractions upon addition of each test drug at 10^-8 M and 10^-7 M were determined as anti-α1 action.

Another assay has as its target serotonin (5-HT) (Cavia porcellus, UniProt A0A286Y537). Put plainly: Anti-serotonin (5-HT) action (contraction of guinea pig superior mesenteric artery induced by serotonin). As to conditions: contraction induced by 10^-5 M 5-HT = 100%, helical superior mesenteric artery preparation, Tyrode solution, 37° C; for remaining activity at 1 µM: test drug 10^-6 M, read-out: Anti 5-HT action (% of Control), 10^-6 M; for remaining activity at 0.1 µM: test drug 10^-7 M, read-out: Anti 5-HT action (% of Control), 10^-7 M. The format is cell-based, Hartley male guinea pig. The procedure: as §1
(2) Anti-serotonin (5-HT) action
A preparation cut in a helical form was suspended under restomg tension of 0.3 g in a Magnus cylinder filled with the Tyrode solution which had been aerated with a gas mixture of 95% O2 and 5% CO2 and maintained at 37° C. Using an isometric transducer ("UL-10", manufactured by SHINKOH K.K.) and a pressure preamplifier ("DSA-605A", manufactured by SHINKOH K.K.), variations in tension were measured. The isometric tensions were recorded on a pen-writing recorder ("VP-6537A", manufactured by NATIONAL K.K.). Taking the contraction induced by 10^-5 M serotonin (5-HT) as 100%, the percent contractions by 10^-5 M 5-HT in the presence of each test drug at 10^-8 M, 10^-7 M and 10^-6 M were determined as anti-5-HT action.

Chain of serotonin (5-HT) (A0A286Y537 1-470): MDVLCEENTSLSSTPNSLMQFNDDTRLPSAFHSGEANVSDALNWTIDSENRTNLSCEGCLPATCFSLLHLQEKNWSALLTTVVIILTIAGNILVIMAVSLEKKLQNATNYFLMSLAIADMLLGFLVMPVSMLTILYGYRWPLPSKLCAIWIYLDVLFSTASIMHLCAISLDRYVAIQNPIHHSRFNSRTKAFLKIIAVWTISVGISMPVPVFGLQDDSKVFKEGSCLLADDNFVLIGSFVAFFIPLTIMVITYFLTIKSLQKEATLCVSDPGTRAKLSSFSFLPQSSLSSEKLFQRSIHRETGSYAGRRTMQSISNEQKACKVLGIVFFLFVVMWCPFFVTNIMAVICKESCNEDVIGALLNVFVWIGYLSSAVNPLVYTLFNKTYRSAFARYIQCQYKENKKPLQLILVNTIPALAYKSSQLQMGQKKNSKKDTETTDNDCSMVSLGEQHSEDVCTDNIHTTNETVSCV

For the compound `CN1CCC(=O)c2c(ccn2CCCCN2CCC(C(=O)c3ccc(F)cc3)CC2)C1=O` [Compound No. 15, 1-[4-[4-(4-fluorobenzoyl)piperidino]-butyl]-5-methyl-1,4,5,6,7,8-hexahydropyrrolo[3,2-c]azepine-4,8-dione], in the assay with α1, the “Anti α1 action (% of Control), 10^-7 M” value is listed as 35.4 % of Control and the “Anti α1 action (% of Control), 10^-8 M” value was 59.9 % of Control. Further, on serotonin (5-HT), the remaining activity at 1 µM came to 26.6% and the remaining activity at 0.1 µM was determined as 75.3%.
For `CN1CCC(=O)c2c(ccn2CCCCN2CCC(c3noc4cc(F)ccc34)CC2)C1=O` [Compound No. 17, 1-[4-[4-(6-fluoro-1,2-benzisoxazol-3-yl)piperidino]butyl]-5-methyl-1,4,5,6,7,8-hexahydropyrrolo[3,2-c]azepine-4,8-dione], in the assay with α1, the “Anti α1 action (% of Control), 10^-7 M” value was 14.0 % of Control and the “Anti α1 action (% of Control), 10^-8 M” value is reported as 27.8 % of Control. In addition, at serotonin (5-HT), the remaining activity at 1 µM turned out to be 8.9% and the remaining activity at 0.1 µM came out at 55.2%. Moreover, the remaining activity at 0.01 µM at serotonin (5-HT) (test drug 10^-8 M, read-out: Anti 5-HT action (% of Control), 10^-8 M) was 80.7%.
Turning to `CN1CCC(=O)c2cn(CCCCN3CCC(C(=O)c4ccc(F)cc4)CC3)cc2C1=O` [Compound No. 18, 2-[4-[4-(4-fluorobenzoyl)piperidino]-butyl]-5-methyl-2,4,5,6,7,8-hexahydropyrrolo[3,4-c]azepine-4,8-dione], in the assay with α1, the “Anti α1 action (% of Control), 10^-7 M” value is recorded as 37.3 % of Control and the “Anti α1 action (% of Control), 10^-8 M” value is 76.0 % of Control. Moreover, on serotonin (5-HT), the remaining activity at 1 µM was 25.3% and the remaining activity at 0.1 µM is 81.7%.
The corresponding values for `CN1CCC(=NO)c2cn(CCCCN3CCC(C(=O)c4ccc(F)cc4)CC3)cc2C1=O` [Compound No. 21, 2-[4-[4-(4-fluorobenzoyl)piperidino]-butyl]-8-hydroxyimino-5-methyl-2,4,5,6,7,8-hexahydropyrrolo[3,4-c]azepin-4-one] are 36.9 % of Control, 69.7 % of Control, 24.9% and 85.5%.
